# Test results from patent publication US20170319519A1, “COMBINATION FOR THE TREATMENT OF CONDITIONS INVOLVING MUSCULAR PAIN” (Spherium Biomed S.L., priority 2014, published 2017).
# Test system: patients with temporomandibular pain
# Assay: Global pain reduction in TMJ patients, visual analogic scale (VAS)
# Assay type: in vivo
# Conditions: n=3 per group, treated 3 times over 24 h, VAS 8 hours after the last administration
# Procedure: In order to test the role of vitamin C in the formulation 7 groups of patients (n=3) with temporomandibular pain were administered the following combinations:
# Patients were treated 3 times over 24 h, and were asked to evaluate their pain (localized and general) 8 hours after the last administration using a visual analogic scale (VAS) from 1 to 10, being 10 the most positive situation. The results of the two assessments were summed up to obtain the global pain score.
structure (smiles),measurement,setting,value
"O=C1O[C@H]([C@@H](O)CO)C(O)=C1O [Group 7, Vitamin C]","effect on reduction of (global) pain, conclusions in words",,worst values in all parameters
same,"effect on reduction of (global) pain, conclusions in words",listed as Vit C,no effect
